Results published in the NIST ThermoML archive (doi:10.1016/j.jct.2015.07.020).
± gives the expanded uncertainty stated by the source.

How the values were obtained:
[1] = refractive index (Na D-line) (dimensionless); conditions: 101.33 kPa, Liquid, Standard Abbe refractometry
[2] = 101.33 kPa, Liquid, Vibrating tube method

refractive index ([1]; 298.15 K) | mass density ([2]; 298.15 K) | refractive index ([1]; 293.15 K) | mass density ([2]; 293.15 K) | Compound
1.493 ± 0.0005 | 862.51 ± 0.3 kg/m3 | – | – | CCc1ccccc1 [ethylbenzene]
– | – | 1.4912 ± 0.0005 | 863.82 ± 0.3 kg/m3 | CC(C)c1ccccc1 [isopropylbenzene]
1.3324 ± 0.0005 | – | – | – | O [water]
